Measured values as given in patent publication US7767659B2, “Synthesis of naturally occurring ecteinascidins and related compounds” (Pharma Mar, S.A., priority 2002, dated 2010).
Where two headings read alike, the source gives them in different places.

What was measured:
PANC-1 = assay: Inhibition of cells growth by colorimetric assay (SRB); conditions: for GI50: read-out: GI50 PANC-1; for CC50: read-out: LC50 PANC-1
Method in brief: (§1)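 Colorimetric SRB read (490 nm) on triplicate wells after 48 h at 37 °C, 5% CO2. Dose range 10 to 10^−8 μg/ml; 5×10^3 cells/well pre-attached 18 h.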

K-562 = assay: as above; conditions: for GI50: read-out: GI50 K562; for CC50: read-out: LC50 K562
Method in brief: as §1

HeLa = assay: as above; conditions: for GI50: read-out: GI50 HELA; for CC50: read-out: LC50 HELA
Method in brief: as §1

HeLa-APL = assay: as above; conditions: for GI50: read-out: GI50 HELA-APL; for CC50: read-out: LC50 HELA-APL
Method in brief: as §1

LoVo-Dox = assay: as above; conditions: for GI50: read-out: GI50 LOVO-DOX; for CC50: read-out: LC50 LOVO-DOX
Method in brief: as §1

SK-BR-3 = assay: as above; conditions: for GI50: read-out: GI50 SK-BR3; for CC50: read-out: LC50 SK-BR3
Method in brief: as §1

IGROV-1 = assay: as above; conditions: for GI50: read-out: GI50 IGROV; for CC50: read-out: LC50 IGROV
Method in brief: as §1

IGROV-ET = assay: as above; conditions: for GI50: read-out: GI50 IGROV-ET; for CC50: read-out: LC50 IGROV-ET
Method in brief: as §1

SK-MEL-28 = assay: as above; conditions: for GI50: read-out: GI50 MEL-28; for CC50: read-out: LC50 MEL-28
Method in brief: as §1

DU-145 = assay: as above; conditions: for GI50: read-out: GI50 DU145; for CC50: read-out: LC50 DU145
Method in brief: as §1

LNCaP = assay: as above; conditions: for GI50: read-out: GI50 LNCAP; for CC50: read-out: LC50 LNCAP
Method in brief: as §1

LoVo = assay: cells; conditions: for GI50: read-out: GI50 LOVO; for CC50: read-out: LC50 LOVO
Method in brief: as §1

A-549 = assay: cells; conditions: for GI50: read-out: GI50 A549; for CC50: read-out: LC50 A549
Method in brief: as §1

HT-29 = assay: cells; conditions: for GI50: read-out: GI50 HT29; for CC50: read-out: LC50 HT29
Method in brief: as §1

[1] = HELA-APL, SRB, 48 hours exposure
[2] = LOVO-DOX, SRB, 48 hours exposure
[3] = IGROV-ET, SRB, 48 hours exposure

C=CCN1C2Cc3cc(C)c(OC)c(O)c3C1C1C3SCC(NC(C)=O)C(=O)OCC(c4c5c(c(C)c(OC(C)=O)c43)OCO5)N1C2C#N (centres unmarked) [compound 24]
TGI PANC-1 (PANC-1; PANC-1, SRB, 48 hours exposure): 9.19E−08 Molar
GI50 (PANC-1; PANC-1, SRB, 48 hours exposure): 0.0301 µM
CC50 (PANC-1; PANC-1, SRB, 48 hours exposure): 14.5 µM
TGI K562 (K-562; K562, SRB, 48 hours exposure): 1.71E−08 Molar
GI50 (K-562; K562, SRB, 48 hours exposure): 0.00407 µM
CC50 (K-562; K562, SRB, 48 hours exposure): 0.0938 µM
TGI HELA (HeLa; HELA, SRB, 48 hours exposure): 4.76E−08 Molar
GI50 (HeLa; HELA, SRB, 48 hours exposure): 0.0203 µM
CC50 (HeLa; HELA, SRB, 48 hours exposure): 0.112 µM
TGI HELA-APL (HeLa-APL; [1]): 4.65E−08 Molar
GI50 (HeLa-APL; [1]): 0.0203 µM
CC50 (HeLa-APL; [1]): 0.107 µM
TGI LOVO-DOX (LoVo-Dox; [2]): 1.74E−06 Molar
GI50 (LoVo-Dox; [2]): 0.115 µM
CC50 (LoVo-Dox; [2]): 14.5 µM
TGI SK-BR3 (SK-BR-3; SK-BR3, SRB, 48 hours exposure): 6.38E−08 Molar
GI50 (SK-BR-3; SK-BR3, SRB, 48 hours exposure): 0.0248 µM
CC50 (SK-BR-3; SK-BR3, SRB, 48 hours exposure): 0.269 µM
TGI IGROV (IGROV-1; IGROV, SRB, 48 hours exposure): 3.18E−08 Molar
GI50 (IGROV-1; IGROV, SRB, 48 hours exposure): 0.00821 µM
CC50 (IGROV-1; IGROV, SRB, 48 hours exposure): 0.11 µM
TGI IGROV-ET (IGROV-ET; [3]): 6.20E−08 Molar
GI50 (IGROV-ET; [3]): 0.0295 µM
CC50 (IGROV-ET; [3]): 0.13 µM
TGI MEL-28 (SK-MEL-28; MEL-28, SRB, 48 hours exposure): 4.27E−08 Molar
GI50 (SK-MEL-28; MEL-28, SRB, 48 hours exposure): 0.0201 µM
CC50 (SK-MEL-28; MEL-28, SRB, 48 hours exposure): 0.0909 µM
TGI DU145 (DU-145; DU145, SRB, 48 hours exposure): 5.23E−08 Molar
GI50 (DU-145; DU145, SRB, 48 hours exposure): 0.0278 µM
CC50 (DU-145; DU145, SRB, 48 hours exposure): 0.125 µM
TGI LNCAP (LNCaP; LNCAP, SRB, 48 hours exposure): 2.53E−08 Molar
GI50 (LNCaP; LNCAP, SRB, 48 hours exposure): 0.0084 µM
CC50 (LNCaP; LNCAP, SRB, 48 hours exposure): 0.0644 µM
TGI LOVO (LoVo; LOVO, SRB, 48 hours exposure): 8.21E−08 Molar
GI50 (LoVo; LOVO, SRB, 48 hours exposure): 0.0261 µM
CC50 (LoVo; LOVO, SRB, 48 hours exposure): 14.5 µM
TGI A549 (A-549; A549, SRB, 48 hours exposure): 4.62E−08 Molar
GI50 (A-549; A549, SRB, 48 hours exposure): 0.0219 µM
CC50 (A-549; A549, SRB, 48 hours exposure): 0.0974 µM
TGI HT29 (HT-29; HT29, SRB, 48 hours exposure): 1.39E−08 Molar
GI50 (HT-29; HT29, SRB, 48 hours exposure): 0.00517 µM
CC50 (HT-29; HT29, SRB, 48 hours exposure): 14.5 µM

C=CCN1[C@@H]2c3c(cc(C)c(OC)c3OC(=O)/C=C/c3ccccc3)C[C@H]1[C@H](C#N)N1C2[C@@H]2SCC(NC(=O)C(F)(F)F)C(=O)OC[C@H]1c1c3c(c(C)c(OC(C)=O)c12)OCO3 (some centres unmarked) [compound 29]
GI50 (PANC-1; Homo sapiens, PANC-1, 48 h): 6.55 µM
CC50 (PANC-1; Homo sapiens, PANC-1, 48 h): 11.4 µM
IC (TGI) (PANC-1; Homo sapiens, PANC-1, 48 h, read-out: TGI PANC-1): 11.4 µM
GI50 (K-562; Homo sapiens, K562, 48 h): 0.629 µM
CC50 (K-562; Homo sapiens, K562, 48 h): 11.4 µM
IC (TGI) (K-562; Homo sapiens, K562, 48 h, read-out: TGI K562): 3.9 µM
GI50 (HeLa; Homo sapiens, HeLa, 48 h): 6.3 µM
CC50 (HeLa; Homo sapiens, HeLa, 48 h): 11.4 µM
IC (TGI) (HeLa; Homo sapiens, HeLa, 48 h, read-out: TGI HELA): 11.4 µM
GI50 (HeLa-APL; Homo sapiens, 48 h): 4.29 µM
CC50 (HeLa-APL; Homo sapiens, 48 h): 11.4 µM
GI50 (LoVo-Dox; Homo sapiens, 48 h): 4.09 µM
CC50 (LoVo-Dox; Homo sapiens, 48 h): 11.4 µM
IC (TGI) (LoVo-Dox; Homo sapiens, 48 h, read-out: TGI LOVO-DOX): 11.4 µM
GI50 (SK-BR-3; Homo sapiens, SK-BR-3, 48 h): 0.889 µM
CC50 (SK-BR-3; Homo sapiens, SK-BR-3, 48 h): 11.4 µM
IC (TGI) (SK-BR-3; Homo sapiens, SK-BR-3, 48 h, read-out: TGI SK-BR3): 7.98 µM
GI50 (IGROV-1; Homo sapiens, IGROV-1, 48 h): 2.19 µM
CC50 (IGROV-1; Homo sapiens, IGROV-1, 48 h): 11.4 µM
IC (TGI) (IGROV-1; Homo sapiens, IGROV-1, 48 h, read-out: TGI IGROV): 11.4 µM
GI50 (IGROV-ET; Homo sapiens, 48 h): 3.12 µM
CC50 (IGROV-ET; Homo sapiens, 48 h): 11.4 µM
IC (TGI) (IGROV-ET; Homo sapiens, 48 h, read-out: TGI IGROV-ET): 11.4 µM
GI50 (SK-MEL-28; Homo sapiens, SK-MEL-28, 48 h): 3.74 µM
CC50 (SK-MEL-28; Homo sapiens, SK-MEL-28, 48 h): 11.4 µM
IC (TGI) (SK-MEL-28; Homo sapiens, SK-MEL-28, 48 h, read-out: TGI MEL-28): 11.4 µM
GI50 (DU-145; Homo sapiens, DU-145, 48 h): 2.3 µM
CC50 (DU-145; Homo sapiens, DU-145, 48 h): 11.4 µM
IC (TGI) (DU-145; Homo sapiens, DU-145, 48 h, read-out: TGI DU145): 7.93 µM
GI50 (LNCaP; Homo sapiens, LNCaP, 48 h): 0.878 µM
CC50 (LNCaP; Homo sapiens, LNCaP, 48 h): 11.4 µM
IC (TGI) (LNCaP; Homo sapiens, LNCaP, 48 h, read-out: TGI LNCAP): 6.07 µM
GI50 (LoVo; Homo sapiens, LoVo, 48 h): 2.85 µM
CC50 (LoVo; Homo sapiens, LoVo, 48 h): 11.4 µM
IC (TGI) (LoVo; Homo sapiens, LoVo, 48 h, read-out: TGI LOVO): 11.4 µM
GI50 (A-549; Homo sapiens, A549, 48 h): 4.8 µM
CC50 (A-549; Homo sapiens, A549, 48 h): 11.4 µM
IC (TGI) (A-549; Homo sapiens, A549, 48 h, read-out: TGI A549): 11.4 µM
GI50 (HT-29; Homo sapiens, HT-29, 48 h): 11.4 µM
CC50 (HT-29; Homo sapiens, HT-29, 48 h): 11.4 µM
IC (TGI) (HT-29; Homo sapiens, HT-29, 48 h, read-out: TGI HT29): 11.4 µM
